Results taken from patent publication US20200399308A1, “COMPOUNDS AND METHODS FOR ELICITING ANTIMICROBIAL ACTIVITY” (Technion Research & Development Foundation Limited, priority 2018, published 2020).
Where two headings read alike, the source gives them in different places.

Tests used:
[1] = Oral 20 mg/kg, published data, cited from earlier work
[2] = system: E. coli 25922; assay: Simultaneous versus delayed drug exposure assay in LB; assay type: cell-based, Escherichia coli
Experimental: (§1) Time-kill kinetics data were determined using 100 μl of bacterial suspension (10^6 CFU/ml), which was added to […] LB containing none of or specified concentrations of the tested compound, antibiotic, and combinations thereof. After the specified exposure time points (37° C. under shaking), aliquots were formed, subjected to serial 10-fold dilutions in saline (0.85% NaCl), and plated for bacterial enumeration after additional 24 hours incubation at 37° C. Time-kill experiments in human and mouse plasma were performed as described elsewhere. The effects of drug delay were assessed in LB, except that bacteria were pre-incubated with the tested compound or antibiotic for the specified time points, centrifuged, and resuspended in fresh LB-containing antibiotic or the tested compound, respectively, and incubated for 3 hours before CFU enumeration.

[3] = system: E. coli strain 16327; assay: Checkerboard antibiotic MIC with Compound B; assay type: cell-based, Escherichia coli
Experimental: (§2) Minimal inhibitory concentrations (MICs) were determined as previously described. […] MICs were determined by microdilution susceptibility testing in 96-well plates (by Nunc) using inocula of 10^5 bacteria per ml. Cell populations were evaluated by optical density measurements at 620 nm and were calibrated against a set of standards. Hundred (100) μl of a bacterial suspension were added to 100 μl of culture medium (control) or to 100 μl of culture medium containing various tested compound concentrations in 2-fold serial dilutions. Inhibition of proliferation was determined by optical density measurements at 620 nm after an incubation period of 24 hours at 37° C. Data were obtained from ≥2 independent experiments performed in duplicate.
(§3) Shown in parentheses are calculated sensitization factor, defined as antibiotic's MICs ratio (in absence vs. presence of Compound B) at specified Compound B concentration.

[4] = system: E. coli strain 25922; assay: Checkerboard antibiotic MIC with Compound B; assay type: cell-based, Escherichia coli
Experimental: as §2, §3

[5] = system: E. coli strain 35218; assay: Checkerboard antibiotic MIC with Compound B; assay type: cell-based, Escherichia coli
Experimental: as §2, §3

[6] = system: E. coli strain 14182; assay: Checkerboard antibiotic MIC with Compound B; assay type: cell-based, Escherichia coli
Experimental: as §2, §3

[7] = system: E. coli strain 14384; assay: Checkerboard antibiotic MIC with Compound B; assay type: cell-based, Escherichia coli
Experimental: as §2, §3

[8] = system: E. coli 25922; assay: Time-kill kinetics in broth versus plasma; assay type: cell-based, Escherichia coli
Experimental: as §1

[9] = system: Escherichia coli 25922; assay: Mouse peritonitis-sepsis model; assay type: in vivo; details: neutropenic ICR mice; rifampin 20 mg/kg orally alone
Experimental: A mouse peritonitis-sepsis model was created as described elsewhere. Infection was obtained after intraperitoneal injection of bacteria from a logarithmic-phase culture. Infected mice were treated subcutaneously. The doses were selected to allow comparison with the reference compound and to remain below the maximum tolerated dose after double-dose administration. […] Briefly, mouse peritonitis sepsis model for in vivo studies were performed using male ICR mice ([…]) obtained from Envigo Laboratories (Rehovot, Israel). […] Infection was obtained by intraperitoneal injection of a logarithmic phase culture of E. coli 25922 (1.3±0.2×10^6 CFU permouse in 0.3 ml PBS). […] Infection control mice were injected with the PBS vehicle. Mouse survival was monitored for up to 7 days after treatment. Statistical analyses were performed by paired Student's t test, at α=0.05.

[10] = system: E. coli strains 25922, 35218, 14182, 16327, 14384; assay: MIC against the 5 listed E. coli strains of Table 2 (stated together); assay type: cell-based, Escherichia coli; details: absence of Compound B
Experimental: as §2, §3

CO[C@H]1/C=C/O[C@@]2(C)Oc3c(C)c(O)c4c(O)c(c(/C=N/N5CCN(C)CC5)c(O)c4c3C2=O)NC(=O)/C(C)=C\C=C\[C@H](C)[C@H](O)[C@@H](C)[C@@H](O)[C@@H](C)[C@H](OC(C)=O)[C@@H]1C [Rifampin, rifampin]
Plasma concentration ([1]; 0.5 h): 6.5 ± 4.7 µg/mL | Plasma concentration ([1]; 1 h): 10.3 ± 0.4 µg/mL | Plasma concentration ([1]; 2 h): 13.2 ± 4.4 µg/mL | reduction of CFU count ([2]; 0.06 μg/ml rifampin in the presence of Compound B (10 μM), simultaneous, 3 hours in LB): ~4 log units | effect of delayed exposure on sensitization by Compound B ([2]; Compound B 10 μM with 0.06 μg/ml rifampin or 4 μg/ml erythromycin, LB): nearly abolished the sensitization effect | Antibiotic MIC in the presence of Compound B ([3]; Compound B 0 μM): 16 mg/L | Antibiotic MIC in the presence of Compound B ([3]; Compound B 2.5 μM): 0.031 mg/L | Antibiotic MIC in the presence of Compound B ([3]; Compound B 5 μM): 0.004 mg/L | Antibiotic MIC in the presence of Compound B ([3]; Compound B 10 μM): 0.002 mg/L | Antibiotic MIC in the presence of Compound B ([4]; Compound B 0 μM): 8 to 16 mg/L | Antibiotic MIC in the presence of Compound B ([4]; Compound B 0 μM, listed as rifampin): 16 mg/L | Antibiotic MIC in the presence of Compound B ([4]; Compound B 2.5 μM): 0.063 mg/L | Antibiotic MIC in the presence of Compound B ([4]; Compound B 5 μM): 0.004 mg/L | Antibiotic MIC in the presence of Compound B ([4]; Compound B 10 μM): 0.001 mg/L | MIC ([4]; Escherichia coli, read-out: rifampin's MIC value, in the presence of Compound B): 0.001 mg/L | Antibiotic MIC in the presence of Compound B ([5]; Compound B 0 μM): 8 mg/L | Antibiotic MIC in the presence of Compound B ([5]; Compound B 5 μM): 0.016 mg/L | Antibiotic MIC in the presence of Compound B ([5]; Compound B 10 μM): 0.002 mg/L | Antibiotic MIC in the presence of Compound B ([6]; Compound B 0 μM): 8 mg/L | Antibiotic MIC in the presence of Compound B ([6]; Compound B 2.5 μM): 0.031 mg/L | Antibiotic MIC in the presence of Compound B ([6]; Compound B 5 μM): 0.004 mg/L | Antibiotic MIC in the presence of Compound B ([6]; Compound B 10 μM): 0.002 mg/L | Antibiotic MIC in the presence of Compound B ([7]; Compound B 0 μM): 8 mg/L | Antibiotic MIC in the presence of Compound B ([7]; Compound B 2.5 μM): 0.016 mg/L | Antibiotic MIC in the presence of Compound B ([7]; Compound B 5 μM): 0.008 mg/L | Antibiotic MIC in the presence of Compound B ([7]; Compound B 10 μM): 0.002 mg/L | reduction of bacterial survival ([8]; LB broth, 24-hours end point, rifampin 1 μg/ml combined with Compound B 0.6 μM): more than 99% | reduction of CFU count ([8]; human plasma, within 2 hours of exposure, rifampin 1 μg/ml with Compound B 0.6 μM): more than 3 log units | time to accomplish the CFU reduction (more than 3 log units) ([8]; human plasma, antibiotic with Compound B 0.6 μM): ≤ 2 hours | combined action with Compound B ([8]; mouse plasma, 24 hours end point, Compound B 10 μM with rifampin 1 μg/ml or erythromycin 3 μg/ml): expressed synergism of action | survival rate of infected mice [9]: zero | antibiotic MICs in the absence of the compound, all the strains tested [10]: 8 to 16 µg/mL
